SMILES strings stand for the structures.

Experiment [1] has as its system Mycobacterium tuberculosis CDC1551 (intracellular, in murine BMDM). The experiment is described as follows: area under intracellular growth-inhibition dose-response curve (AUC (% inhibition x dose, relative)); higher = more potent. As to conditions: duration: 6 days; dose range: 0.13-80 uM, 8 points. Put shortly:
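Each value is an area under the growth-inhibition dose–response curve, calculated with GraphPad Prism. Infected primary murine bone marrow-derived macrophages, carrying luciferase-expressing M. tuberculosis CDC1551 at multiplicity of infection 1, were treated for 6 days with an 8-dose, 2.5-fold series (final 80–0.13 μM) in 384-well opaque plates. Readout was by Bright-Glo luciferin assay, normalised to a reference drug control and the lowest-concentration wells.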

The subject of experiment [2] is murine bone marrow-derived macrophages. As to the kind of experiment: area under cytotoxicity dose-response curve (AUC (% cytotoxicity x dose, relative)); higher = more cytotoxic. As to conditions: duration: 6 days; dose range: 0.13-80 uM, 8 points. Put shortly: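 An 8-point, 2.5-fold dilution series (final 80–0.13 μM) was applied for 6 days at 37 °C in 5% CO2 to primary murine bone marrow-derived macrophages plated in opaque 384-well plates. Promega's CellTiter-Glo luminescence assay measured viability, and percent cytotoxicity was normalised against vehicle and positive control wells. The area under the dose–response curve, worked out in GraphPad Prism version 10, is the reported cytotoxicity measure.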

`CCCCN(C(=O)CSc1nnc(-c2ccccc2)o1)c1c(N)n(CCC)c(=O)[nH]c1=O`: in experiment [1], the “area under intracellular growth-inhibition dose-response curve” value was 65.6. Moreover, the “area under cytotoxicity dose-response curve” value in experiment [2] was under 0.
With `Cc1cc2oc(=O)cc(-c3ccccc3)c2c(C)c1-c1ccc(CO)cc1`, the “area under intracellular growth-inhibition dose-response curve” value in experiment [1] amounted to 271. Moreover, in experiment [2], the “area under cytotoxicity dose-response curve” value was under 0.
With `Cc1cc(OCCCC(=O)NNC(=O)c2ccncc2)ccc1Cl`, in experiment [1], the “area under intracellular growth-inhibition dose-response curve” value was 245. In addition, the “area under cytotoxicity dose-response curve” value in experiment [2] stood at 25.3.
Taken in the same sequence, the figures for `O=C(Nc1ccc(NC(=S)NC(=O)c2cccs2)cc1)c1ccccc1` were 244 and 33.4.
Regarding `O=C(NCCc1c[nH]c2ccccc12)c1cc([N+](=O)[O-])cc([N+](=O)[O-])c1`, in experiment [1], the “area under intracellular growth-inhibition dose-response curve” value worked out at 257. Moreover, the “area under cytotoxicity dose-response curve” value in experiment [2] was under 0.
For `COc1cc(OC)c([N+](=O)[O-])cc1/C=N/NC(=O)c1ccncc1`, the “area under intracellular growth-inhibition dose-response curve” value in experiment [1] stood at 242. In addition, the “area under cytotoxicity dose-response curve” value in experiment [2] was 19.
Taken in the same sequence, the figures for `CCOC(=O)c1c(-c2ccccc2)nc2ccc(C)cn12` were 203 and 58.7.
Turning to `O=C(Nc1ccc(C(=O)Oc2ccccc2)c(O)c1)c1ccco1`, the “area under intracellular growth-inhibition dose-response curve” value in experiment [1] was 223. Besides, the “area under cytotoxicity dose-response curve” value in experiment [2] was 4.02.
For `S=C(NCc1ccc(Cl)cc1)NC12CC3CC(CC(C3)C1)C2`, the “area under intracellular growth-inhibition dose-response curve” value in experiment [1] amounted to 157. The “area under cytotoxicity dose-response curve” value in experiment [2] is under 0.
Consider `NC(=S)N/N=C/c1ccc(-c2cccc([N+](=O)[O-])c2)o1`, for which the “area under intracellular growth-inhibition dose-response curve” value in experiment [1] amounted to 206. For the same molecule, in experiment [2], the “area under cytotoxicity dose-response curve” value worked out at 51.4.
On to `O=C(COc1ccccc1)NC1CCCCC1`, for which the “area under intracellular growth-inhibition dose-response curve” value in experiment [1] is 260. Also, in experiment [2], the “area under cytotoxicity dose-response curve” value was 80.6.
For `COc1ccc(/C=N/NC(=O)c2ccncc2)cc1COc1ccc(NC(C)=O)cc1`, in experiment [1], the “area under intracellular growth-inhibition dose-response curve” value is 272. Further, the “area under cytotoxicity dose-response curve” value in experiment [2] is 14.4.
Take `CCN(CC)C(=O)CSc1nnc2nnc3cc(Cl)ccc3n12`: the “area under intracellular growth-inhibition dose-response curve” value in experiment [1] came to 219. Besides, in experiment [2], the “area under cytotoxicity dose-response curve” value amounted to 55.1.
With `CNC[C@H](Cc1ccccc1)NC[C@@H](Cc1cccc2ccccc12)NCCc1ccc(C)cc1`, the “area under intracellular growth-inhibition dose-response curve” value in experiment [1] turned out to be 53.8. The “area under cytotoxicity dose-response curve” value in experiment [2] is 108.
For the molecule `Cn1cc(/C=N/NC(N)=S)c2ccccc21`, the “area under intracellular growth-inhibition dose-response curve” value in experiment [1] worked out at 275. The “area under cytotoxicity dose-response curve” value in experiment [2] is under 0.
`O=C1N(c2nncs2)CCN1[N+](=O)[O-]`: the “area under intracellular growth-inhibition dose-response curve” value in experiment [1] was 97.8. Besides, in experiment [2], the “area under cytotoxicity dose-response curve” value was under 0.
Consider `O=C(Cn1c(=O)cnc2ccccc21)Nc1cccc(S(=O)(=O)N2CCOCC2)c1`, for which the “area under intracellular growth-inhibition dose-response curve” value in experiment [1] is 23.9. Besides, the “area under cytotoxicity dose-response curve” value in experiment [2] stood at 30.4.
On the same counts, the results for `CC(=O)N1CCN(c2cc3c(cc2F)c(=O)c(C(=O)O)cn3C2CC2)CC1` are 228 and 6.41.
Turning to `COc1cccc2c1C(=O)c1c(O)c3c(c(O)c1C2=O)C[C@@](O)(C(=O)CO)C[C@@H]3O[C@H]1C[C@H](N)[C@H](O)[C@H](C)O1.Cl`, the “area under intracellular growth-inhibition dose-response curve” value in experiment [1] is 117. Besides, the “area under cytotoxicity dose-response curve” value in experiment [2] came to 147.
Regarding `O=C(NCc1cccc(C(F)(F)F)c1)c1ccc[nH]1`, the “area under intracellular growth-inhibition dose-response curve” value in experiment [1] was found to be 91. For the same molecule, the “area under cytotoxicity dose-response curve” value in experiment [2] was 2.14.
Regarding `O=C(N/N=C/c1ccc(O)c([N+](=O)[O-])c1)c1ccncc1`, the “area under intracellular growth-inhibition dose-response curve” value in experiment [1] is 256. Besides, in experiment [2], the “area under cytotoxicity dose-response curve” value was under 0.
As to `O=C(NCc1ccco1)c1cc2c(s1)CCCCC2`, the “area under intracellular growth-inhibition dose-response curve” value in experiment [1] was 255. The “area under cytotoxicity dose-response curve” value in experiment [2] is 42.6.

Source of the values: the supplement of paper PMC11997997.
